Data reported in the NIST ThermoML archive (doi:10.1021/je0601457).

Test: xn = mol fraction of the nth substance listed

c1cnccn1 [pyrazine] + O=C=O
Fluid (supercritical or subcritical phases), Linear displacement technique
Conditions | mass density [kg/m3]
321.55 K, 14590 kPa, x1 = 0.177 | 866
322.35 K, 7410 kPa, x1 = 0.495 | 980
322.35 K, 10310 kPa, x1 = 0.495 | 990
322.35 K, 13000 kPa, x1 = 0.495 | 963
323.35 K, 10030 kPa, x1 = 0.074 | 825
323.35 K, 10240 kPa, x1 = 0.074 | 835
323.35 K, 11900 kPa, x1 = 0.074 | 876
324.65 K, 9340 kPa, x1 = 0.015 | 394
324.65 K, 9620 kPa, x1 = 0.015 | 408
324.65 K, 9830 kPa, x1 = 0.015 | 423
324.65 K, 10970 kPa, x1 = 0.015 | 576
324.65 K, 11380 kPa, x1 = 0.015 | 611
324.65 K, 11620 kPa, x1 = 0.015 | 627
324.65 K, 11760 kPa, x1 = 0.015 | 640
325.85 K, 10170 kPa, x1 = 0.116 | 739
325.85 K, 13140 kPa, x1 = 0.116 | 767
326.15 K, 9900 kPa, x1 = 0.019 | 460
326.15 K, 10520 kPa, x1 = 0.019 | 580
326.15 K, 11140 kPa, x1 = 0.019 | 656
326.15 K, 11520 kPa, x1 = 0.019 | 688
326.15 K, 12310 kPa, x1 = 0.019 | 729
326.65 K, 8860 kPa, x1 = 0.397 | 1023
326.65 K, 11070 kPa, x1 = 0.397 | 1027
326.65 K, 14100 kPa, x1 = 0.397 | 1036
327.25 K, 10170 kPa, x1 = 0.146 | 980
327.25 K, 15900 kPa, x1 = 0.146 | 990
328.15 K, 11830 kPa, x1 = 0.308 | 980
328.15 K, 13760 kPa, x1 = 0.308 | 990
328.15 K, 15340 kPa, x1 = 0.308 | 997
332.95 K, 18030 kPa, x1 = 0.224 | 879
334.05 K, 11550 kPa, x1 = 0.177 | 803
334.05 K, 11900 kPa, x1 = 0.177 | 809
334.05 K, 15590 kPa, x1 = 0.177 | 831
334.75 K, 10340 kPa, x1 = 0.495 | 980
334.75 K, 13550 kPa, x1 = 0.495 | 987
334.75 K, 19410 kPa, x1 = 0.495 | 1002
337.05 K, 11660 kPa, x1 = 0.146 | 760
337.05 K, 15140 kPa, x1 = 0.146 | 792
337.85 K, 12170 kPa, x1 = 0.09 | 738
337.85 K, 12590 kPa, x1 = 0.09 | 752
337.85 K, 15900 kPa, x1 = 0.09 | 815
338.45 K, 11520 kPa, x1 = 0.019 | 475
338.45 K, 11970 kPa, x1 = 0.019 | 512
338.45 K, 12170 kPa, x1 = 0.019 | 526
338.45 K, 12590 kPa, x1 = 0.019 | 565
339.45 K, 12590 kPa, x1 = 0.074 | 708
339.45 K, 13280 kPa, x1 = 0.074 | 750
340.95 K, 12380 kPa, x1 = 0.116 | 693
340.95 K, 15210 kPa, x1 = 0.116 | 739
345.05 K, 12450 kPa, x1 = 0.224 | 823
345.05 K, 19340 kPa, x1 = 0.224 | 858
345.55 K, 10380 kPa, x1 = 0.397 | 995
345.55 K, 12480 kPa, x1 = 0.397 | 999
345.55 K, 12860 kPa, x1 = 0.397 | 1002
347.75 K, 13030 kPa, x1 = 0.177 | 758
347.75 K, 14100 kPa, x1 = 0.177 | 770
347.75 K, 16790 kPa, x1 = 0.177 | 792
348.05 K, 12310 kPa, x1 = 0.308 | 965
348.05 K, 17620 kPa, x1 = 0.308 | 986
348.05 K, 19720 kPa, x1 = 0.308 | 996
348.95 K, 13380 kPa, x1 = 0.09 | 684
348.95 K, 13690 kPa, x1 = 0.09 | 683
348.95 K, 16450 kPa, x1 = 0.09 | 771
350.55 K, 13760 kPa, x1 = 0.116 | 665
350.55 K, 15520 kPa, x1 = 0.116 | 707
350.85 K, 13410 kPa, x1 = 0.146 | 708
351.95 K, 13450 kPa, x1 = 0.074 | 604
351.95 K, 16280 kPa, x1 = 0.074 | 719
352.35 K, 11140 kPa, x1 = 0.019 | 335
352.35 K, 11210 kPa, x1 = 0.019 | 352
352.35 K, 12310 kPa, x1 = 0.019 | 415
352.35 K, 12480 kPa, x1 = 0.019 | 428
352.35 K, 12790 kPa, x1 = 0.019 | 443
360.85 K, 14860 kPa, x1 = 0.116 | 630
360.85 K, 17720 kPa, x1 = 0.116 | 695
362.25 K, 14720 kPa, x1 = 0.177 | 709
362.25 K, 14830 kPa, x1 = 0.177 | 712
362.25 K, 19480 kPa, x1 = 0.177 | 761
362.35 K, 14660 kPa, x1 = 0.224 | 779
362.35 K, 18660 kPa, x1 = 0.224 | 802
365.65 K, 15210 kPa, x1 = 0.09 | 591
366.25 K, 14930 kPa, x1 = 0.074 | 542
366.25 K, 15760 kPa, x1 = 0.074 | 547
366.25 K, 16860 kPa, x1 = 0.074 | 511
369.65 K, 14550 kPa, x1 = 0.397 | 964
369.65 K, 16410 kPa, x1 = 0.397 | 968
369.65 K, 20720 kPa, x1 = 0.397 | 982
372.55 K, 11480 kPa, x1 = 0.495 | 959
372.55 K, 12720 kPa, x1 = 0.495 | 962
372.55 K, 15000 kPa, x1 = 0.495 | 970

linear displacement
Conditions | mass density [kg/m3]
321.55 K, Liquid, x1 = 0.177 | 834
322.35 K, Liquid, x1 = 0.495 | 975
323.35 K, Liquid, x1 = 0.074 | 810
324.65 K, Gas, x1 = 0.015 | 382
325.85 K, Liquid, x1 = 0.116 | 734
326.15 K, Gas, x1 = 0.019 | 442
326.65 K, Liquid, x1 = 0.397 | 1017
327.25 K, Liquid, x1 = 0.146 | 790
328.15 K, Liquid, x1 = 0.308 | 970
332.95 K, Liquid, x1 = 0.224 | 842
334.05 K, Liquid, x1 = 0.177 | 795
334.75 K, Liquid, x1 = 0.495 | 972
337.05 K, Liquid, x1 = 0.146 | 753
337.85 K, Liquid, x1 = 0.09 | 727
338.45 K, Gas, x1 = 0.019 | 431
339.45 K, Liquid, x1 = 0.074 | 695
340.95 K, Liquid, x1 = 0.116 | 684
345.05 K, Liquid, x1 = 0.224 | 816
345.55 K, Liquid, x1 = 0.397 | 991
347.75 K, Liquid, x1 = 0.177 | 751
348.05 K, Liquid, x1 = 0.308 | 957
348.95 K, Liquid, x1 = 0.09 | 672
350.55 K, Liquid, x1 = 0.116 | 651
350.85 K, Liquid, x1 = 0.146 | 703
351.95 K, Liquid, x1 = 0.074 | 589
352.35 K, Gas, x1 = 0.019 | 324
360.85 K, Liquid, x1 = 0.116 | 620
362.25 K, Liquid, x1 = 0.177 | 704
362.35 K, Liquid, x1 = 0.224 | 770
365.65 K, Liquid, x1 = 0.09 | 582
366.25 K, Liquid, x1 = 0.074 | 532
369.65 K, Liquid, x1 = 0.397 | 952
372.55 K, Liquid, x1 = 0.495 | 955
